# In patent US6355799B1, “Substituted benzene compounds, process for their preparation, and herbicidal and defoliant compositions containing them” (ISK Americas Incorporated, priority 1997, dated 2002):
# Tests used:
# Type in all cases: in vivo
# [1] = system: upland rice (Oryza sp., var. Tebonnet, RICE); assay: Pre-emerge test, crop safety; settings: for Pre-emerge Herbicidal Activity RICE: crop damage rating 0-100, 14 days after application; for phytotoxicity rating RICE (crop damage): pre-emerge, 14 days after application, scale 0-100
# How it was run: (§1)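 Plants grown in 10 cm pots of sandy loam mix received acetone-dissolved compounds through a moving flat-fan nozzle. Doses ranged from 15 to 1000 g ai/ha. Pre-emerge pots were seeded one day earlier, post-emerge pots 8–21 days earlier. Fourteen days on, each pot was graded 0–100 for damage.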
# [2] = system: field corn (Zea mays L., var. Dekalb 535, CORN); assay: Pre-emerge test, crop safety; settings: for Pre-emerge Herbicidal Activity CORN: crop damage rating 0-100, 14 days after application; for phytotoxicity rating CORN (crop damage): pre-emerge, 14 days after application, scale 0-100
# How it was run: as §1
# [3] = system: redroot pigweed (Amaranthus retroflexus, AMARE); assay: Pre-emerge test, greenhouse herbicide activity screening; settings: for Pre-emerge Herbicidal Activity AMARE: phytotoxicity rating 0-100, 14 days after application; for phytotoxicity rating AMARE: pre-emerge, 14 days after application, scale 0-100
# How it was run: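 Compounds in acetone were track-sprayed at 187 l/ha, 15–1000 g ai/ha, onto sandy loam pots. Pre-emerge seeds were sown one day before spraying, with surface watering afterwards. Post-emerge plants were at the 2–3 leaf stage and sprayed with 0.25% v/v non-ionic surfactant. Injury was rated 0–100 at 14 days.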
# [4] = system: upland rice (Oryza sp., var. Tebonnet, RICE); assay: Post-emerge test, crop safety; settings: post-emerge, 14 days after application, rating scale 0-100
# How it was run: (§2)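 Each test used a mechanized track sprayer delivering 187 l/ha of acetone solution at 15–1000 g ai/ha. Post-emerge foliage at 2–3 leaves was treated with added 0.25% v/v non-ionic surfactant and bottom-watered only. Injury was assessed on day 14, where 100 means total kill.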
# [5] = system: field corn (Zea mays L., var. Dekalb 535, CORN); assay: Post-emerge test, crop safety; settings: post-emerge, 14 days after application, rating scale 0-100
# How it was run: as §2
# [6] = system: lambsquarters (Chenopodium album, CHEAL); assay: Pre-emerge test, greenhouse herbicide activity screening; settings: for Pre-emerge Herbicidal Activity CHEAL: phytotoxicity rating 0-100, 14 days after application; for phytotoxicity rating CHEAL: pre-emerge, 14 days after application, scale 0-100
# Text: (§3) A standard greenhouse herbicide activity screening system was used to evaluate the herbicidal efficacy and crop safety of these test compounds. Seven broadleaf weed species including redroot pigweed (Amaranthus retroflexus, AMARE, velvetleaf (Abutilon theophrasti, ABUTH), sicklepod (Cassia obtusifolia, CASOB), ivyleaf morningglory (Ipomoea hederacea, IPOHE), lambsquarters (Chenopodium album, CHEAL), common ragweed (Ambrosia artemisizfolia L., AMBEL), and cocklebur (Xanthium strumarium, XANST) were used as test species. Four grass weed species including green foxtail (Setaria viridis, SETVI), barnyardgrass (Echinochloa crus-galli, ECHCG), johnsongrass (Sorghum halepense, SORHA), and large crabgrass (Digitaria sanguinalis, DIGSA) were also used. In addition, three crop species, field corn (Zea mays L., var. Dekalb 535, CORN), soybean (Glycine max L., var. Pella 86, SOY), and is upland rice (Oryza sp., var. Tebonnet, RICE) were included.
# (§4) All plants were grown in 10 cm square plastic pots which were filled with a sandy loam soil mix. For pre-emerge tests, seeds were planted one day prior to application of the test compounds. For post-emerge tests, seeds were planted 8-21 days prior to the test to allow emergence and good foliage development prior to application of the test substances. At the time of the post-emerge application, plants of all species were usually at the 2-3 leaf stage of development.
# (§5) All test compounds Were dissolved in acetone and applied to the test units in a volume of 187 l /ha. Test materials were applied at rates ranging from 15 g ai/ha to 1000 g ai/ha using a track sprayer equipped with a TJ8001E even flow flat fan spray nozzle. Plants were arranged on a shelf so that the top of the canopy (post-emerge) or top of the soil surface (pre-emerge) was 40-45 cm below the nozzle. Pressurized air was used to force the test solution through the nozzle as it was mechanically advanced (via electrically driven chain drive) over the top of all test plants/pots. This application simulates a typical commercial field herbicide application.
# (§6) In the post-emerge test, a commercial non-ionic surfactant was also included (0.25% v/v) to enhance wetting of the leaf surfaces of target plants. Immediately after application, test units of the pre-emerge applications were watered at the soil surface to incorporate the test materials. Subsequently, these test units were bottom-watered. Post-emerge test units were always bottom-watered.
# (§7) At 14 days after application of the test materials, phytotoxicity ratings were recorded. A rating scale of 0-100 was used as previously described in Research Methods in Weed Science, 2nd edition, B. Truelove, Ed., Southern Weed Science Society, Auburn University, Auburn, Ala. 1977. Briefly, “0” corresponds to no damage and “100” corresponds to complete death of all plants in the test unit. This scale was used both to determine efficacy against weed species and damage to crop species. Herbicide activity data for various compounds of this invention, which are shown by compound No. in Tables 1-8, are shown in Tables 11 and 12.
# [7] = system: large crabgrass (Digitaria sanguinalis, DIGSA); assay: as above; settings: for Pre-emerge Herbicidal Activity DIGSA: phytotoxicity rating 0-100, 14 days after application; for phytotoxicity rating DIGSA: pre-emerge, 14 days after application, scale 0-100
# Text: as §3, §4, §5, §6, §7
# [8] = system: barnyardgrass (Echinochloa crus-galli, ECHCG); assay: as above; settings: for Pre-emerge Herbicidal Activity ECHCG: phytotoxicity rating 0-100, 14 days after application; for phytotoxicity rating ECHCG: pre-emerge, 14 days after application, scale 0-100
# Text: as §3, §4, §5, §6, §7
# [9] = system: ivyleaf morningglory (Ipomoea hederacea, IPOHE); assay: as above; settings: for Pre-emerge Herbicidal Activity IPOHE: phytotoxicity rating 0-100, 14 days after application; for phytotoxicity rating IPOHE: pre-emerge, 14 days after application, scale 0-100
# Text: as §3, §4, §5, §6, §7
# [10] = system: green foxtail (Setaria viridis, SETVI); assay: as above; settings: for Pre-emerge Herbicidal Activity SETVI: phytotoxicity rating 0-100, 14 days after application; for phytotoxicity rating SETVI: pre-emerge, 14 days after application, scale 0-100
# Text: as §3, §4, §5, §6, §7
# [11] = system: velvetleaf (Abutilon theophrasti, ABUTH); assay: as above; settings: for Pre-emerge Herbicidal Activity ABUTH: phytotoxicity rating 0-100, 14 days after application; for phytotoxicity rating ABUTH: pre-emerge, 14 days after application, scale 0-100
# Text: as §3, §4, §5, §6, §7
# [12] = system: sicklepod (Cassia obtusifolia, CASOB); assay: as above; settings: for Pre-emerge Herbicidal Activity CASOB: phytotoxicity rating 0-100, 14 days after application; for phytotoxicity rating CASOB: pre-emerge, 14 days after application, scale 0-100
# Text: as §3, §4, §5, §6, §7
# [13] = system: lambsquarters (Chenopodium album, CHEAL); assay: Post-emerge test, greenhouse herbicide activity screening; settings: post-emerge, 14 days after application, rating scale 0-100
# Text: as §3, §4, §5, §6, §7
# [14] = system: large crabgrass (Digitaria sanguinalis, DIGSA); assay: as above; settings: post-emerge, 14 days after application, rating scale 0-100
# Text: as §3, §4, §5, §6, §7
# [15] = system: barnyardgrass (Echinochloa crus-galli, ECHCG); assay: as above; settings: post-emerge, 14 days after application, rating scale 0-100
# Text: as §3, §4, §5, §6, §7
# [16] = system: redroot pigweed (Amaranthus retroflexus, AMARE); assay: as above; settings: post-emerge, 14 days after application
# Text: as §3, §4, §5, §6, §7
# [17] = system: ivyleaf morningglory (Ipomoea hederacea, IPOHE); assay: as above; settings: post-emerge, 14 days after application, rating scale 0-100
# Text: as §3, §4, §5, §6, §7
# [18] = system: green foxtail (Setaria viridis, SETVI); assay: as above; settings: post-emerge, 14 days after application, rating scale 0-100
# Text: as §3, §4, §5, §6, §7
# [19] = system: velvetleaf (Abutilon theophrasti, ABUTH); assay: as above; settings: post-emerge, 14 days after application, rating scale 0-100
# Text: as §3, §4, §5, §6, §7
# [20] = system: sicklepod (Cassia obtusifolia, CASOB); assay: as above; settings: post-emerge, 14 days after application, rating scale 0-100
# Text: as §3, §4, §5, §6, §7
# [21] = 250 g ai/ha, rating scale 0-100
smiles,measurement,setting,value
COc1c(Cl)cc(F)c(-n2c(=O)cc(C(F)(F)F)n(C)c2=O)c1NC(=O)OCc1ccc(C(F)(F)F)cc1 [4-43],Pre-emerge Herbicidal Activity RICE,[1]; 63 g ai/ha,0
same,Pre-emerge Herbicidal Activity RICE,[1]; 250 g ai/ha,10
same,Pre-emerge Herbicidal Activity CORN,[2]; 63 g ai/ha,0
same,Pre-emerge Herbicidal Activity CORN,[2]; 250 g ai/ha,0
same,Pre-emerge Herbicidal Activity AMARE,[3]; 63 g ai/ha,10
same,Pre-emerge Herbicidal Activity AMARE,[3]; 250 g ai/ha,60
same,phytotoxicity rating RICE (crop damage),[4]; 63 g ai/ha,0
same,phytotoxicity rating RICE (crop damage),[4]; 250 g ai/ha,0
same,phytotoxicity rating CORN (crop damage),[5]; 63 g ai/ha,0
same,phytotoxicity rating CORN (crop damage),[5]; 250 g ai/ha,10
same,Pre-emerge Herbicidal Activity CHEAL,[6]; 63 g ai/ha,30
same,Pre-emerge Herbicidal Activity CHEAL,[6]; 250 g ai/ha,80
same,Pre-emerge Herbicidal Activity DIGSA,[7]; 63 g ai/ha,0
same,Pre-emerge Herbicidal Activity DIGSA,[7]; 250 g ai/ha,60
same,Pre-emerge Herbicidal Activity ECHCG,[8]; 63 g ai/ha,0
same,Pre-emerge Herbicidal Activity ECHCG,[8]; 250 g ai/ha,10
same,Pre-emerge Herbicidal Activity IPOHE,[9]; 63 g ai/ha,0
same,Pre-emerge Herbicidal Activity IPOHE,[9]; 250 g ai/ha,10
same,Pre-emerge Herbicidal Activity SETVI,[10]; 63 g ai/ha,0
same,Pre-emerge Herbicidal Activity SETVI,[10]; 250 g ai/ha,70
same,Pre-emerge Herbicidal Activity ABUTH,[11]; 63 g ai/ha,20
same,Pre-emerge Herbicidal Activity ABUTH,[11]; 250 g ai/ha,50
same,Pre-emerge Herbicidal Activity CASOB,[12]; 63 g ai/ha,0
same,Pre-emerge Herbicidal Activity CASOB,[12]; 250 g ai/ha,40
same,phytotoxicity rating CHEAL,[13]; 63 g ai/ha,80
same,phytotoxicity rating CHEAL,[13]; 250 g ai/ha,90
same,phytotoxicity rating DIGSA,[14]; 63 g ai/ha,0
same,phytotoxicity rating DIGSA,[14]; 250 g ai/ha,0
same,phytotoxicity rating ECHCG,[15]; 63 g ai/ha,0
same,phytotoxicity rating ECHCG,[15]; 250 g ai/ha,10
same,phytotoxicity rating AMARE,"[16]; 63 g ai/ha, rating scale 0-100 (0 no damage, 100 complete death)",70
same,phytotoxicity rating AMARE,[16]; [21],100
same,phytotoxicity rating IPOHE,[17]; 63 g ai/ha,40
same,phytotoxicity rating IPOHE,[17]; 250 g ai/ha,40
same,phytotoxicity rating SETVI,[18]; 63 g ai/ha,0
same,phytotoxicity rating SETVI,[18]; 250 g ai/ha,40
same,phytotoxicity rating ABUTH,[19]; 63 g ai/ha,60
same,phytotoxicity rating ABUTH,[19]; 250 g ai/ha,100
same,phytotoxicity rating CASOB,[20]; 63 g ai/ha,50
same,phytotoxicity rating CASOB,[20]; 250 g ai/ha,60
COc1c(Cl)cc(F)c(-n2c(=O)cc(C(F)(F)F)n(N)c2=O)c1NC(=O)c1ccc2ccccc2c1 [2-184],phytotoxicity rating RICE (crop damage),[1]; 63 g ai/ha,30
same,phytotoxicity rating RICE (crop damage),[1]; 250 g ai/ha,60
same,phytotoxicity rating CORN (crop damage),[2]; 63 g ai/ha,0
same,phytotoxicity rating CORN (crop damage),[2]; 250 g ai/ha,30
same,phytotoxicity rating AMARE,[3]; 63 g ai/ha,100
same,phytotoxicity rating AMARE,[3]; 250 g ai/ha,100
same,RICE phytotoxicity rating (crop damage),[4]; 63 g ai/ha,40
same,RICE phytotoxicity rating (crop damage),[4]; 250 g ai/ha,65
same,CORN phytotoxicity rating (crop damage),[5]; 63 g ai/ha,10
same,CORN phytotoxicity rating (crop damage),[5]; 250 g ai/ha,75
same,phytotoxicity rating CHEAL,[6]; 63 g ai/ha,100
same,phytotoxicity rating CHEAL,[6]; 250 g ai/ha,100
same,phytotoxicity rating DIGSA,[7]; 63 g ai/ha,60
same,phytotoxicity rating DIGSA,[7]; 250 g ai/ha,100
same,phytotoxicity rating ECHCG,[8]; 63 g ai/ha,30
same,phytotoxicity rating ECHCG,[8]; 250 g ai/ha,80
same,phytotoxicity rating IPOHE,[9]; 63 g ai/ha,50
same,phytotoxicity rating IPOHE,[9]; 250 g ai/ha,100
same,phytotoxicity rating SETVI,[10]; 63 g ai/ha,50
same,phytotoxicity rating SETVI,[10]; 250 g ai/ha,100
same,phytotoxicity rating ABUTH,[11]; 63 g ai/ha,100
same,phytotoxicity rating ABUTH,[11]; 250 g ai/ha,100
same,phytotoxicity rating CASOB,[12]; 63 g ai/ha,50
same,phytotoxicity rating CASOB,[12]; 250 g ai/ha,75
same,CHEAL phytotoxicity rating,[13]; 63 g ai/ha,100
same,CHEAL phytotoxicity rating,[13]; 250 g ai/ha,100
same,DIGSA phytotoxicity rating,[14]; 63 g ai/ha,20
same,DIGSA phytotoxicity rating,[14]; 250 g ai/ha,90
same,ECHCG phytotoxicity rating,[15]; 63 g ai/ha,40
same,ECHCG phytotoxicity rating,[15]; 250 g ai/ha,50
same,AMARE phytotoxicity rating,"[16]; 63 g ai/ha, rating scale 0-100",100
same,AMARE phytotoxicity rating,[16]; [21],100
same,IPOHE phytotoxicity rating,[17]; 63 g ai/ha,100
same,IPOHE phytotoxicity rating,[17]; 250 g ai/ha,100
same,SETVI phytotoxicity rating,[18]; 63 g ai/ha,60
same,SETVI phytotoxicity rating,[18]; 250 g ai/ha,80
same,ABUTH phytotoxicity rating,[19]; 63 g ai/ha,100
same,ABUTH phytotoxicity rating,[19]; 250 g ai/ha,100
same,CASOB phytotoxicity rating,[20]; 63 g ai/ha,100
same,CASOB phytotoxicity rating,[20]; 250 g ai/ha,100
